Test [1] concerns the target T1, VEGFR2 intracellular domain protein (Homo sapiens, UniProt P35968).
T1 construct: made in house; host or cells: SF-21 insect cells, recombinant baculovirus BAC-VEGFR2
In words: Determination of vascular endothelial growth factor receptor 2 (VEGFR2) kinase inhibitory activity (AlphaScreen). It counts as biochemical. The note with it: read-out: VEGFR2 kinase inhibitory rate. On the procedure: Human vascular endothelial growth factor receptor 2 (hereinafter to be referred to as VEGFR2) gene was cloned by PCR using cDNA Libraries Human Placenta (Clontech) as a template. The primer used for PCR was prepared from base sequence (Genbank Accession AF035121) information of VEGFR2 gene by adding a base sequence encoding flag peptide and a recognition sequence of the restriction enzyme to a base sequence (2671-4374 of Genbank Accession AF035121) encoding the VEGFR2 intracellular domain region, so that the protein contains an N-terminal Flag tag. The primer base sequence is shown below.
SF-21 cells were sown at 1×10^6 cells/mL to Sf-900II SFM medium (1 L, Invitrogen) containing 10% fetal bovine serum (trace), 50 mg/L Gentamicin (Invitrogen) and 0.1% Pluronic F-68 (Invitrogen), and shaking culture was performed using a 2 L volume Erlenmeyer flask at 27° C., 100 rpm. After culturing for 24 hrs, recombinant baculovirus BAC-VEGFR2 (13.4 mL) was added to the mixture, and the mixture was further cultured for 3 days. The culture medium was centrifuged at 2,000 rpm for 5 min to give virus-infected cells. The infected cells were washed with a phosphate buffered saline (Invitrogen), centrifuged under the same conditions, and the cells were preserved at −80° C. The cryopreserved cells were thawed in ice, suspended in buffer A (50 mM Tris buffer (30 mL, pH 7.4) containing 20% glycerol, 0.15 M NaCl) supplemented with Complete Protease Inhibitor (Boehringer), and ruptured 3 times with a Polytron homogenizer (Kinematica) at 20,000 rpm for 30 sec. The ruptured medium was clarified by centrifugation at 40,000 rpm for 30 min and filtered with a 0.45 μm filter. The filtrate was passed through a column packed with Anti-FLAG M2 Affinity Gel (4 mL, Sigma) at a flow rate of about 0.5 mL/min. The column was washed with buffer A, and eluted with buffer A containing 100 μg/mL of FLAG peptide. The eluate was concentrated with Vivaspin 20 (Vivascience) having a molecular weight cut off of 30K. The buffer of this concentrate was exchanged using NAP™ 25 column (Amersham Bioscience) equilibrated with buffer A. The fractions containing intracellular domain protein of VEGFR2 were collected, glycerol was added to the final concentration of 50% and cryopreserved at −80° C.
A test compound dissolved in dimethyl sulfoxide (DMSO) was diluted with a buffer (50 mM Tris-HCl (pH 7.5), 5 mM MgCl2, 5 mM MnCl2, 2 mM dithiothreitol, 0.01% Tween-20). To this compound solution (5 μL) was added a buffer (10 μL) containing 50 ng/mL of VEGFR2 intracellular domain protein and 250 ng/mL of biotin labeled polypeptide biotinyl-poly-Glu:Tyr (4:1) (CIS bio International). To the obtained mixture was added a buffer (10 μL) containing ATP (25 μM), the mixture was allowed to react at 25° C. for 5 min and the reaction was quenched with 25 μL of a stop solution (100 mM EDTA disodium salt, 62.5 mM HEPES buffer (pH 7.4), 250 mM NaCl, 0.1% bovine serum albumin, 10 μg/mL AlphaScreen assay streptavidin donor beads (Streptavidin Donor beads: PerkinElmer), 10 μg/mL AlphaScreen assay anti-phosphotyrosine recognition antibody PY-100 binding acceptor beads (Anti-phosphotyrosine (P-Tyr-100) Acceptor beads: PerkinElmer)). The reaction solution was allowed to stand at 25° C. for 16 hrs, and the wells were counted using a plate reader Fusion™ (PerkinElmer). The kinase inhibitory rate (%) of the test compound was calculated by the following formula: Inhibitory rate(%)=(1−(count of test compound−blank)÷(control−blank))×100
For orientation: In Alpha technology, singlet oxygen from a donor bead excites a nearby acceptor bead.

For test [2], the target named is T2, PDGFRα intracellular domain protein (Homo sapiens, UniProt P16234).
T2 construct: 125 ng/ml of PDGFRα intracellular domain protein (UPSTATE); purchased UPSTATE
In words: Determination of platelet-derived growth factor receptor α (PDGFRα) kinase inhibitory activity (AlphaScreen). It counts as biochemical. On the procedure: (§1) A test compound dissolved in dimethyl sulfoxide (DMSO) was diluted with a buffer (50 mM Tris-HCl (pH 7.5), 5 mM MgCl2, 5 mM MnCl2, 2 mM dithiothreitol, 0.01% Tween-20). To this compound solution (5 μL) was added a buffer (10 μL) containing 125 ng/ml of PDGFRα intracellular domain protein (UPSTATE) and 250 ng/mL of biotin labeled polypeptide biotinyl-poly-Glu:Tyr (4:1) (CIS bio International). At 5 min after mixing kinase enzyme and the compound and biotin labeled polypeptide, to the obtained mixture was added a buffer (10 μL) containing ATP (25 μM), the mixture was allowed to react at 25° C. for 30 min and the reaction was quenched with 25 μL of a stop solution (100 mM EDTA disodium salt, 62.5 mM HEPES buffer (pH 7.4), 250 mM NaCl, 0.1% bovine serum albumin, 10 μg/mL AlphaScreen assay streptavidin donor beads (Streptavidin Donor beads: PerkinElmer), 10 μg/mL AlphaScreen assay anti-phosphotyrosine recognition antibody PT-66 binding acceptor beads (Anti-phosphotyrosine (P-Tyr-66) Acceptor beads: PerkinElmer)). The reaction solution was allowed to stand at 25° C. for 16 hrs, and the wells were counted using a plate reader Fusion™ (PerkinElmer). The kinase inhibitory rate (%) of the test compound was calculated by the following formula: Inhibitory rate(%)=(1−(count of test compound−blank)÷(control−blank))×100
(§2) The count of the solution reacted without addition of the compound was used as a “control”, and the count of the solution without the compound and ATP was used as a “blank”.

Test [3] deals with Human umbilical vein-derived vascular endothelial cells (HUVEC). The test is described as follows: Vascular endothelial cell growth inhibitory test (VEGF-stimulated HUVEC, XTT). In kind it is cell-based. The note with it: 120 h, 5 days of culture. On the procedure:
To be specific, HUVEC was suspended in a vascular endothelial cell medium containing the aforementioned 5% bovine fetal serum and plated on a 96 well flat bottom plate by 50 μL (3000 cells) each well. After culture overnight, various concentrations of the test substance and 120 ng/mL of vascular endothelial growth factor (VEGF) were dissolved in a vascular endothelial cell medium containing 5% bovine fetal serum and added to each well by 50 μL. After 5 days of culture, a XTT reagent (Wako Pure Chemical Industries, Ltd.) was added to each well by 10 μL, and the mixture was reacted in an incubator at 37° C., 5% carbon dioxide for 2-3 hr. The absorbance at 450 nm was measured by a microtiter plate reader and the cell growth inhibitory activity was determined.

Test [4] has as its target T3, PDGFRβ intracellular domain protein (Homo sapiens, UniProt P09619).
T3 construct: 125 ng/ml of PDGFRβ intracellular domain protein (UPSTATE); purchased UPSTATE
In words: Determination of platelet-derived growth factor receptor β (PDGFRβ) kinase inhibitory activity (AlphaScreen). In kind it is biochemical. The protocol: as §1, with “of PDGFRβ” for “of PDGFRα”, “Donor Beads:” for “Donor beads:”, “test compound[…])÷(control−blank))×100” for “test compound−blank)÷(control−blank))×100”
as §2

Each structure is given as a SMILES string.

T2 sequence (P16234 550-1089 limits assumed): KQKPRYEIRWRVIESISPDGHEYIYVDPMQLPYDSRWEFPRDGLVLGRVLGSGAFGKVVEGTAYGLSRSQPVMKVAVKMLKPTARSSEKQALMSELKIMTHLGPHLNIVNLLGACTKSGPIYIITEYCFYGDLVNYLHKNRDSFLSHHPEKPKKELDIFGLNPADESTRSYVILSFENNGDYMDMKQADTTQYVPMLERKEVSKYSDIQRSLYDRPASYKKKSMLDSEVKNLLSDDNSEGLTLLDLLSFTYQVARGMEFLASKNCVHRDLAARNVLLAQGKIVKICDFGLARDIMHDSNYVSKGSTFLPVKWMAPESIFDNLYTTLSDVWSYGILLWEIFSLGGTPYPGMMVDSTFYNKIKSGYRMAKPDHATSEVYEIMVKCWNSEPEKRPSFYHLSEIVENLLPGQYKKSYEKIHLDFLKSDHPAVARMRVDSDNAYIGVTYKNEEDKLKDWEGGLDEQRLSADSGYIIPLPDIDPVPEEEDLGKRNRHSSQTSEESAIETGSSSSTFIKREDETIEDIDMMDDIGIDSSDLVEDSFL
T1 sequence (P35968 786-1356 limits assumed): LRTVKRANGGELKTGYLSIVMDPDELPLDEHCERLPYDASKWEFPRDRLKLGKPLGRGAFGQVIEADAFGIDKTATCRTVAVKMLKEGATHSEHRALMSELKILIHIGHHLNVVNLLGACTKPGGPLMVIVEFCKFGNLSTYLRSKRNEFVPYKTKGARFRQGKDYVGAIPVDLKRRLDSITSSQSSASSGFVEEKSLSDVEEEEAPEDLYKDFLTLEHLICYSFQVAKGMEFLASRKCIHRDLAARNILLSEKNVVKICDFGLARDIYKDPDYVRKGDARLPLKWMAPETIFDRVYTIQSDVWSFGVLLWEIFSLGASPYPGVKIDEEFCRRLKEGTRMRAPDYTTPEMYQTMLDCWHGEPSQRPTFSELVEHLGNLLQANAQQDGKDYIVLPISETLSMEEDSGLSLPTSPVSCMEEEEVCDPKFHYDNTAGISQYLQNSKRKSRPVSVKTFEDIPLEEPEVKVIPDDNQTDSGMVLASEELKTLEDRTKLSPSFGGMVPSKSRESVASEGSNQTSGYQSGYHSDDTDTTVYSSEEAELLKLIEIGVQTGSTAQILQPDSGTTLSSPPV
T3 sequence (P09619 554-1106 limits assumed): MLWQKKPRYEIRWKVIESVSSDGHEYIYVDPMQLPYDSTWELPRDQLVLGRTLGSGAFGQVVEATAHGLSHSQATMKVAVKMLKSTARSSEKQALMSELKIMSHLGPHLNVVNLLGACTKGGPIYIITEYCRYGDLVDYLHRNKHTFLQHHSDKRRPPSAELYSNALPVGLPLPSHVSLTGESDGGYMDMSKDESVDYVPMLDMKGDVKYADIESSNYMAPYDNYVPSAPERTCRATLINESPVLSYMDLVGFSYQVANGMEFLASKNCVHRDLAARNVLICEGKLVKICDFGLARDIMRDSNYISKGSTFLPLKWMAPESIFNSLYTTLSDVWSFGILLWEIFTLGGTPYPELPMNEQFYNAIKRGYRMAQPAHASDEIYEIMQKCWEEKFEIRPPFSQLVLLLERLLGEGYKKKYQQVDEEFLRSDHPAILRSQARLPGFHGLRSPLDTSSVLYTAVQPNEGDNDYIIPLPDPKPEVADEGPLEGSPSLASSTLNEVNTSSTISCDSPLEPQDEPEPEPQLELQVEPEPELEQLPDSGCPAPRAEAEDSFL

What is called IC50 is the concentration needed to halve the response being measured. High values mean a need for much substance, low ones inhibition by little substance. As for `COc1cc(C(=O)Nc2cc(Oc3ccc4nc(NC(=O)C5CC5)cn4n3)ccc2C)n(C)n1` [Example 302, N-[5-({2-[(cyclopropylcarbonyl)amino]imidazo[1,2-b]pyridazin-6-yl}oxy)-2-methylphenyl]-3-methoxy-1-methyl-1H-pyrazole-5-carboxamide], in test [1], the inhibition at 1 µM is at least 90%. Further, the concentration for half-maximal inhibition (IC50) in test [2], in test [3] and in test [4] was at most 500 nM in each case.

For the compound `Cc1nc(C)c(C(=O)Nc2cccc(Oc3ccc4nc(NC(=O)C5CC5)cn4n3)c2)s1` [Example 114, N-[3-({2-[(cyclopropylcarbonyl)amino]imidazo[1,2-b]pyridazin-6-yl}oxy)phenyl]-2,4-dimethyl-1,3-thiazole-5-carboxamide], the inhibition at 1 µM in test [1] is at least 90%. Also, the IC50 in test [3] and in test [4] was at most 500 nM in each case.

Consider `COCC(=O)Nc1cn2nc(Oc3cccc(NC(=O)c4cc(C)nn4C)c3)ccc2n1` [Example 127, N-[3-({2-[(methoxyacetyl)amino]imidazo[1,2-b]pyridazin-6-yl}oxy)phenyl]-1,3-dimethyl-1H-pyrazole-5-carboxamide], for which, in test [1], the inhibition at 1 µM is at least 90%. Further, the IC50 in test [3] and in test [4] was at most 500 nM each time.

For the compound `Cc1cc(C(=O)Nc2cc(Oc3ccc4nc(NC(=O)C5CC5)cn4n3)ccc2C)n(C)n1` [Example 111, N-[5-({2-[(cyclopropylcarbonyl)amino]imidazo[1,2-b]pyridazin-6-yl}oxy)-2-methylphenyl]-1,3-dimethyl-1H-pyrazole-5-carboxamide], in test [1], the inhibition at 1 µM was at least 90%. For the same compound, in test [3], the IC50 is at most 500 nM.

Regarding `Cc1nc(C(=O)Nc2cccc(Oc3ccc4nc(NC(=O)C5CC5)cn4n3)c2)c(C)o1` [Example 117, N-[3-({2-[(cyclopropylcarbonyl)amino]imidazo[1,2-b]pyridazin-6-yl}oxy)phenyl]-2,5-dimethyl-1,3-oxazole-4-carboxamide], in test [1], the inhibition at 1 µM is at least 90%. The IC50 in test [3] and in test [4] was at most 500 nM throughout.

For the compound `CCc1nc(C)c(C(=O)Nc2cc(Oc3ccc4nc(NC(=O)C5CC5)cn4n3)ccc2F)o1` [Example 314, N-[5-({2-[(cyclopropylcarbonyl)amino]imidazo[1,2-b]pyridazin-6-yl}oxy)-2-fluorophenyl]-2-ethyl-4-methyl-1,3-oxazole-5-carboxamide], in test [1], the inhibition at 1 µM was at least 90%. The IC50 in test [2], in test [3] and in test [4] was at most 500 nM each time.

Regarding `O=C(Nc1cn2nc(Oc3ccc4cc[nH]c4c3)ccc2n1)C1CC1` [Example 95, N-[6-(1H-indol-6-yloxy)imidazo[1,2-b]pyridazin-2-yl]cyclopropanecarboxamide], the inhibition at 1 µM in test [1] was at least 90%. For the same compound, the half-inhibitory concentration (IC50) in test [2] and in test [3] was at most 500 nM in each case.

Turning to `CCn1cc(C(=O)Nc2cc(Oc3ccc4nc(NC(=O)C5CC5)cn4n3)ccc2Cl)c(C)n1` [Example 254, N-[2-chloro-5-({2-[(cyclopropylcarbonyl)amino]imidazo[1,2-b]pyridazin-6-yl}oxy)phenyl]-1-ethyl-3-methyl-1H-pyrazole-4-carboxamide], the inhibition at 1 µM in test [1] is at least 90%. In addition, the IC50 in test [3] and in test [4] was at most 500 nM in each case.

In the case of `CCNC(=O)Nc1cccc(Oc2ccc3nc(NC(=O)C4CC4)cn3n2)c1` [Example 103, N-[6-(3-{[(ethylamino)carbonyl]amino}phenoxy)imidazo[1,2-b]pyridazin-2-yl]cyclopropanecarboxamide], the inhibition at 1 µM in test [1] was at least 90%. Further, the IC50 in test [3] and in test [4] was at most 500 nM in each case.

On to `Cc1ccc(Oc2ccc3nc(NC(=O)C4CC4)cn3n2)cc1N` [Example 108, N-[6-(3-amino-4-methylphenoxy)imidazo[1,2-b]pyridazin-2-yl]cyclopropanecarboxamide], for which, in test [1], the inhibition at 1 µM was at least 90%. This compound returned an IC50 in test [3] of at most 500 nM.

With `Cc1cc(C(=O)Nc2cccc(Oc3ccc4nc(NC(=O)CN(C)C)cn4n3)c2)n(C)n1` [Example 149, N-[3-({2-[(N,N-dimethylglycyl)amino]imidazo[1,2-b]pyridazin-6-yl}oxy)phenyl]-1,3-dimethyl-1H-pyrazole-5-carboxamide], the inhibition at 1 µM in test [1] is at least 90%. The IC50 in test [3] and in test [4] was at most 500 nM in each case.

With `Cc1cc(C(=O)Nc2cccc(Sc3ccc4nc(NC(=O)C5CC5)cn4n3)c2)n(C)n1` [Example 150, N-[3-({2-[(cyclopropylcarbonyl)amino]imidazo[1,2-b]pyridazin-6-yl}sulfanyl)phenyl]-1,3-dimethyl-1H-pyrazole-5-carboxamide], in test [1], the inhibition at 1 µM is at least 90%. The concentration for half-maximal inhibition (IC50) in test [3] and in test [4] was at most 500 nM in each case.

These data come from patent publication US8034812B2, “Imidazopyridazine derivative having kinase inhibitory activity and pharmaceutical agent thereof” (Takeda Pharmaceutical Company Limited, priority 2006, dated 2011).
